{
  "source": "patent EP0099122A2",
  "about": "“Compositions comprising pepstatin and an histamine H2-receptor antagonist having an enhanced antiulcer activity” (Bristol-Myers Company, priority 1982, dated 1984)",
  "test_system": "HCl-Induced Formation of Gastric Lesions",
  "experiment": "HCl-induced gastric erosions in rats (modified method of Robert et al.)",
  "format": "in vivo, Long Evans rats",
  "details": "for enhancement of the inhibitory effect by pepstatin: plus 20 mg/kg pepstatin",
  "method": "In the tests described below, gastric erosions produced in rats by the oral instillation of 1.0 mL of 0.75N HC1 were compared with those in rats which had been pretreated with the most preferred compound of Formula I (of Example 1) or with that compound and pepstatin. Comparison tests utilizing pretreatment with the newer commercial product, ranitidine, and with ranitidine and pepstatin, are also shown. Ranitidine is about 4 and 6 times as potent as cimetidine as an inhibitor of gastric acid secretion by the oral route in the rat and dog, respectively.\nA modification of the method of Robert et al., [Gastroenterology, 77, 433-443 (1979)] was employed to produce gastric erosions. Adult male, Long Evans rats weighing 280-300 g (Blue Spruce Farms, Alton, New York) were used. The animals were individually caged and food and water were removed 24 and 18 hours, respectively, prior to testing. On the following day, the test compound was administered orally to the animals 30 minutes before 1.0 mL of 0.75N HC1 was instilled into the stomach by gavage. Animals treated with the combination of the test compound and pepstatin received the test compound 30 minutes before, and a fixed amount of pepstatin (20 mg/kg po) 10 minutes before, the hydrochloric acid was administered. […] One hour after receiving the HC1 solution, the animals were sacrificed with an intraperitoneal injection of 0.2 mL of T-61®, a euthanasia solution (National Laboratories Corp.).\nThe stomachs were removed from the animals, cut along the greater curvature, opened, rinsed with saline and pinned out flat in a standard position for macroscopic examination and scoring of erosions. The stomachs were photographed with a Polaroid® Close Up camera (Polaroid Corporation) and scoring was determined from the photographs. For scoring purposes, only those erosions with a minimum length of 1 mm were considered. The severity of gastric ulceration was defined for each animal as the sum of the maximum continuous lengths (in mm) of the erosions satisfying the above criteria. Percent inhibition of lesion formation was defined as\n(mm erosion, vehicle control') - (mm erosion, test agent) 100. (mm erosion, vehicle control)\nData were analyzed using the t-test for unpaired data' and ED50 values were calculated from the dose response data using probit analysis [Finney, Probit Analysis, 3rd ed., University Press, Cambridge, England (1971)].\nThe compound of Example 1 and ranitidine (synthesized by the Medicinal Chemistry Research Department of Bristol Laboratories, Division of.Bristol-Myers Company) were dissolved in one equivalent of HC1 and the pH adjusted to 5.5 with NaOH. A suspension of pepstatin (Banyu Pharmaceutical Co. Ltd.) in water was made by homogenizing the compound with a few drops of Tween-80® (Atlas Chemical Industries). Each of these compounds were administered orally by gavage in a volume of 2 mL/kg.",
  "data": [
    {"compound": "Nc1c(NCCCOc2cccc(CN3CCCCC3)c2)c(=O)c1=O", "note": "[Example 1]", "values": [
      {"measurement": "Potency Ratio", "setting": "compound alone versus compound plus pepstatin (20 mg/kg po)", "value": 3.5},
      {"measurement": "enhancement of the inhibitory effect by pepstatin", "setting": "Example 1 at 25 mg/kg", "value": "the difference was not statistically significant"},
      {"measurement": "enhancement of the inhibitory effect by pepstatin", "setting": "Example 1 at 50 and 75 mg/kg, ranitidine at 25-100 mg/kg", "value": "significantly enhanced the inhibitory effect"},
      {"measurement": "formation of gastric erosions", "setting": "pretreatment po, compound alone, Example 1 at 25, 50 or 75 mg/kg, ranitidine at 25, 50, 75 or 100 mg/kg", "value": "decreased the formation of gastric erosions in a dose-related manner"},
      {"measurement": "ED50", "setting": "rat, compound po 30 min before 1.0 mL 0.75N HCl, compound alone, probit analysis, read-out: ED50 (mg/kg) for Inhibition of Ulcer Formation, Alone", "value": 115, "unit": "mg/kg"},
      {"measurement": "ED50 (mg/kg) for Inhibition of Ulcer Formation, with Pepstatin", "setting": "rat, compound po 30 min before and pepstatin 20 mg/kg po 10 min before 1.0 mL 0.75N HCl", "value": 33, "unit": "mg/kg"}
    ]}
  ]
}
